Experimental findings from patent publication US12384808B2, “Modulators of TNF-α activity” (Forward Therapeutics, Inc., priority 2022, dated 2025) are described below.

The IC50 is the concentration at which inhibition is half-maximal.

Sequence of TNFα (P01375 77-233 limits assumed): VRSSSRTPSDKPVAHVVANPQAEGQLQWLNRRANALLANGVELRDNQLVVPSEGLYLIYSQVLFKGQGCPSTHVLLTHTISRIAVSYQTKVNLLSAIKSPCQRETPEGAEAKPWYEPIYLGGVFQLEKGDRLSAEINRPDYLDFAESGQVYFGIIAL

The test concerns the target TNFα (Homo sapiens, UniProt P01375). Description: TNFα Induced HEK Blue Cellular Assay. The format is cell-based. The conditions noted are these: HEK Blue TNFα reporter cells, TNFα 100 pg/ml, 24 hrs at 37° C., secreted alkaline phosphatase (QUANTI-Blue) read at 620 nm; read-out: IC50 value. The essentials: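 Reporter cells (10,000/well, DMEM + 10% FBS) with compound (final […] to 0.5 nM) stimulated with 100 pg/ml TNFα, 24 h at 37 °C, 5% CO2. Secreted alkaline phosphatase read at 620 nm; IC50 by 4-parameter logistic fit after background correction against stimulated/unstimulated DMSO controls.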
As to `CN1C(=O)c2cccc(OC(F)F)c2[C@H]2C[C@@H]1c1nc3ccc(-c4ccc(OCP(C)(C)=O)cc4)cc3n12` [Example 38, (1R,11R)-18-(difluoromethoxy)-5-{4-[(dimethylphosphoryl)methoxy]phenyl}-12-methyl-2,9,12-triazapentacyclo[9.8.1.0^{2,10}.0^{3,8}.0^{14,19}]icosa-3(8),4,6,9,14(19),15,17-heptaen-13-one], the IC50 was below 100 nM.
Then `CN1C(=O)c2cccc(OC(F)F)c2[C@H]2C[C@@H]1c1nc3ccc(-c4ccc(OCCP(C)(C)=O)nc4)cc3n12` [Example 39, (1R,11R)-18-(difluoromethoxy)-5-{6-[2-(dimethylphosphoryl)ethoxy]pyridin-3-yl}-12-methyl-2,9,12-triazapentacyclo[9.8.1.0^{2,10}.0^{3,8}.0^{14,19}]icosa-3(8),4,6,9,14(19),15,17-heptaen-13-one], with below 100 nM; and `CN1C(=O)c2cccc(OC(F)F)c2[C@H]2C[C@@H]1c1nc3ccc(-c4ccc(OCCCP(C)(C)=O)nc4)cc3n12` [Example 40, (1R,11R)-18-(difluoromethoxy)-5-{6-[3-(dimethylphosphoryl)propoxy]pyridin-3-yl}-12-methyl-2,9,12-triazapentacyclo[9.8.1.0^{2,10}.0^{3,8}.0^{14,19}]icosa-3(8),4,6,9,14(19),15,17-heptaen-13-one], with 100 to 1000 nM.
Then `CP(C)(=O)c1ccc(-c2ccc3nc4n(c3c2)[C@@H]2C[C@H]4NC(=O)c3cccc(OC(F)F)c32)c(Cl)c1` [Example 41, (1R,11R)-5-[2-chloro-4-(dimethylphosphoryl)phenyl]-18-(difluoromethoxy)-2,9,12-triazapentacyclo[9.8.1.0^{2,10}.0^{3,8}.0^{14,19}]icosa-3(8),4,6,9,14(19),15,17-heptaen-13-one], with below 100 nM.
Under `CP(C)(=O)COc1ncc(-c2ccc3nc4n(c3c2)[C@@H]2C[C@H]4NC(=O)c3cccc(OC(F)F)c32)s1` [Example 42, (1R,11R)-18-(difluoromethoxy)-5-{2-[(dimethylphosphoryl)methoxy]-1,3-thiazol-5-yl}-2,9,12-triazapentacyclo[9.8.1.0^{2,10}.0^{3,8}.0^{14,19}]icosa-3(8),4,6,9,14(19),15,17-heptaen-13-one] stands below 100 nM; under `CP(C)(=O)c1ccc(-c2ccc3nc4n(c3c2)[C@@H]2C[C@H]4NC(=O)c3cccc(OC(F)F)c32)cc1F` [Example 43, (1R,11R)-18-(difluoromethoxy)-5-[4-(dimethylphosphoryl)-3-fluorophenyl]-2,9,12-triazapentacyclo[9.8.1.0^{2,10}.0^{3,8}.0^{14,19}]icosa-3(8),4,6,9,14(19),15,17-heptaen-13-one], below 100 nM; under `CCN1C(=O)c2cccc(OC(F)F)c2[C@H]2C[C@@H]1c1nc3ccc(-c4ccc(OCP(C)(C)=O)cc4)cc3n12` [Example 44, (1R,11R)-18-(difluoromethoxy)-5-{4-[(dimethylphosphoryl)methoxy]phenyl}-12-ethyl-2,9,12-triazapentacyclo[9.8.1.0^{2,10}.0^{3,8}.0^{14,19}]icosa-3(8),4,6,9,14(19),15,17-heptaen-13-one], below 100 nM.
As to `CCN1C(=O)c2cccc(OC(F)F)c2[C@H]2C[C@@H]1c1nc3ccc(-c4ccc(P(C)(C)=O)c(F)c4)cc3n12` [Example 45, (1R,11R)-18-(difluoromethoxy)-5-[4-(dimethylphosphoryl)-3-fluorophenyl]-12-ethyl-2,9,12-triazapentacyclo[9.8.1.0^{2,10}.0^{3,8}.0^{14,19}]icosa-3(8),4,6,9,14(19),15,17-heptaen-13-one], the IC50 was below 100 nM.
Turning to `CCN1C(=O)c2cccc(OC(F)F)c2[C@H]2C[C@@H]1c1nc3ccc(-c4cc(F)c(P(C)(C)=O)c(F)c4)cc3n12` [Example 46, (1R,11R)-18-(difluoromethoxy)-5-[4-(dimethylphosphoryl)-3,5-difluorophenyl]-12-ethyl-2,9,12-triazapentacyclo[9.8.1.0^{2,10}.0^{3,8}.0^{14,19}]icosa-3(8),4,6,9,14(19),15,17-heptaen-13-one], the IC50 was below 100 nM.
Under `CP(C)(=O)c1ccc(-c2ccc3nc4n(c3c2)[C@@H]2C[C@H]4N(C3CC3)C(=O)c3cccc(OC(F)F)c32)cn1` [Example 47, (1R,11R)-12-cyclopropyl-18-(difluoromethoxy)-5-[6-(dimethylphosphoryl)pyridin-3-yl]-2,9,12-triazapentacyclo[9.8.1.0^{2,10}.0^{3,8}.0^{14,19}]icosa-3(8),4,6,9,14(19),15,17-heptaen-13-one] stands below 100 nM.
Then `CP(C)(=O)c1ccc(-c2ccc3nc4n(c3c2)[C@@H]2C[C@H]4N(C3CC3)C(=O)c3cccc(OC(F)F)c32)cc1F` [Example 48, (1R,11R)-12-cyclopropyl-18-(difluoromethoxy)-5-[4-(dimethylphosphoryl)-3-fluorophenyl]-2,9,12-triazapentacyclo[9.8.1.0^{2,10}.0^{3,8}.0^{14,19}]icosa-3(8),4,6,9,14(19),15,17-heptaen-13-one], with below 100 nM; and `CCN1C(=O)c2cccc(OC(F)F)c2[C@H]2C[C@@H]1c1nc3ccc(-c4ccc(P(C)(C)=O)cc4)cc3n12` [Example 49, (1R,11R)-18-(difluoromethoxy)-5-[4-(dimethylphosphoryl)phenyl]-12-ethyl-2,9,12-triazapentacyclo[9.8.1.0^{2,10}.0^{3,8}.0^{14,19}]icosa-3(8),4,6,9,14(19),15,17-heptaen-13-one], with below 100 nM.
On to `CN1C(=O)c2cccc(OC(F)F)c2[C@H]2C[C@@H]1c1nc3ccc(-c4ccc(NP(C)(C)=O)cc4)cc3n12` [Example 50, (1R,11R)-18-(difluoromethoxy)-5-{4-[(dimethylphosphoryl)amino]phenyl}-12-methyl-2,9,12-triazapentacyclo[9.8.1.0^{2,10}.0^{3,8}.0^{14,19}]icosa-3(8),4,6,9,14(19),15,17-heptaen-13-one], for which the half-maximal inhibitory concentration (IC50) was below 100 nM.
Under `CCP(=O)(CC)c1ccc(-c2ccc3nc4n(c3c2)[C@@H]2C[C@H]4NC(=O)c3cccc(OC(F)F)c32)cc1F` [Example 51, (1R,11R)-5-[4-(diethylphosphoryl)-3-fluorophenyl]-18-(difluoromethoxy)-2,9,12-triazapentacyclo[9.8.1.0^{2,10}.0^{3,8}.0^{14,19}]icosa-3(8),4,6,9,14(19),15,17-heptaen-13-one] stands below 100 nM; under `[2H]C([2H])([2H])N1C(=O)c2cccc(OC(F)F)c2[C@H]2C[C@@H]1c1nc3ccc(-c4ccc(P(C)(C)=O)c(F)c4F)cc3n12` [Example 52, (7R,14R)-1-(difluoromethoxy)-11-(4-(dimethylphosphoryl)-2,3-difluorophenyl)-6-(methyl-d3)-6,7-dihydro-7,14-methanobenzo[f]benzo[4,5]imidazo[1,2-a][1,4]diazocin-5(14H)-one], below 100 nM.
Under `[2H]C([2H])([2H])N1C(=O)c2cccc(OC(F)F)c2[C@H]2C[C@@H]1c1nc3ccc(-c4ccc(P(C)(C)=O)cc4F)cc3n12` [Example 53, (7R,14R)-1-(difluoromethoxy)-11-(4-(dimethylphosphoryl)-2-fluorophenyl)-6-(methyl-d3)-6,7-dihydro-7,14-methanobenzo[f]benzo[4,5]imidazo[1,2-a][1,4]diazocin-5(14H)-one] stands below 100 nM.
Then `[2H]C([2H])([2H])N1C(=O)c2cccc(OC(F)F)c2[C@H]2C[C@@H]1c1nc3ccc(-c4cc(F)c(P(C)(C)=O)cc4F)cc3n12` [Example 54, (7R,14R)-1-(difluoromethoxy)-11-(4-(dimethylphosphoryl)-2,5-difluorophenyl)-6-(methyl-d3)-6,7-dihydro-7,14-methanobenzo[f]benzo[4,5]imidazo[1,2-a][1,4]diazocin-5(14H)-one], with below 100 nM.
With `CN1C(=O)c2cccc(OC(F)F)c2[C@H]2C[C@@H]1c1nc3cc(F)c(-c4ccc(P(C)(C)=O)c(F)c4F)cc3n12` [Example 55, (1R,11R)-18-(difluoromethoxy)-5-[4-(dimethylphosphoryl)-2,3-difluorophenyl]-6-fluoro-12-methyl-2,9,12-triazapentacyclo[9.8.1.0^{2,10}.0^{3,8}.0^{14,19}]icosa-3(8),4,6,9,14(19),15,17-heptaen-13-one], the IC50 was below 100 nM.
Under `CN1C(=O)c2cccc(OC(F)F)c2[C@H]2C[C@@H]1c1nc3ccc(-c4cc(F)c(P(C)(C)=O)cc4F)cc3n12` [Example 56, (1R,11R)-18-(difluoromethoxy)-5-[4-(dimethylphosphoryl)-2,5-difluorophenyl]-12-methyl-2,9,12-triazapentacyclo[9.8.1.0^{2,10}.0^{3,8}.0^{14,19}]icosa-3(8),4,6,9,14(19),15,17-heptaen-13-one] stands below 100 nM.
Then `CN1C(=O)c2cccc(OC(F)F)c2[C@H]2C[C@@H]1c1nc3cc(F)c(-c4ccc(P(C)(C)=O)c(F)c4)cc3n12` [Example 57, (1R,11R)-18-(difluoromethoxy)-5-[4-(dimethylphosphoryl)-3-fluorophenyl]-6-fluoro-12-methyl-2,9,12-triazapentacyclo[9.8.1.0^{2,10}.0^{3,8}.0^{14,19}]icosa-3(8),4,6,9,14(19),15,17-heptaen-13-one], with below 100 nM; and `CN1C(=O)c2cccc(OC(F)F)c2[C@H]2C[C@@H]1c1nc3cc(F)c(-c4ccc(P(C)(C)=O)cc4F)cc3n12` [Example 58, (1R,11R)-18-(difluoromethoxy)-5-[4-(dimethylphosphoryl)-2-fluorophenyl]-6-fluoro-12-methyl-2,9,12-triazapentacyclo[9.8.1.0^{2,10}.0^{3,8}.0^{14,19}]icosa-3(8),4,6,9,14(19),15,17-heptaen-13-one], with below 100 nM.
